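96-well plates; 48 h exposure; 5 concentrations. Endpoints by linear interpolation between flanking doses. Not reached: highest tested concentration assigned. At the GI50, growth is halved. The concentration for full growth arrest is given as TGI.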 Bounds are passed on as bounds.

Experiment in all cases: growth of human tumour cells (NCI), 48 h
Assay [1] concerns OVCAR-4 ovarian.
Assay [2] deals with COLO 205 colon.
For assay [3], the system named is RPMI-8226 leukemia.
Assay [4] has as its system MOLT-4 leukemia.
For assay [5], the system named is HOP-92 NSCLC.
The test system of assay [6] is 786-0 renal.
For assay [7], the system named is PC-3 prostate.
Assay [8] deals with SN12C renal.
In assay [9] the test system is SF-295 CNS.
For assay [10], the system named is HT29 colon.

Regarding `Cn1cc(-c2nc(-c3c[nH]c4ncccc34)cs2)c2ccccc21`, the GI50 is 0.117 µM in assay [1]; 24.1 µM in assay [2]; 4.6 µM in assay [3]; 23 µM in [4]; 2.72 µM in assay [5]; 91.7 µM in assay [6]. In addition, the GI50 in [7] was 16.4 µM; in assay [8], greater than 100 µM; in [9], 26.9 µM. Further, the TGI is greater than 100 µM in [1]; greater than 100 µM in assay [2]; greater than 100 µM in assay [3]; greater than 100 µM in assay [4]; 36.2 µM in [5]; greater than 100 µM in [6]. The TGI in assay [7], in [8] and in [9] was greater than 100 µM each time.
As to `C/C(=N\OCC(O)CNCCSCc1ccccc1)c1ccccc1Cl` (stereo not drawn), the TGI in assay [2] is 38.4 µM; in [3] it was 43.4 µM; in [4], greater than 100 µM; in assay [5], 28.4 µM; in assay [6], 46.3 µM; in [7] it was 36.2 µM. In addition, the TGI stood at 34.8 µM in assay [8], 41.4 µM in assay [10] and 36.2 µM in [9].
In the case of `CC(=O)CC/C=C(\C)[C@H](O)[C@H](C)C(=O)O[C@H]1C[C@H](C)C=C2C=C[C@@]3(C)O[C@@H](O)CC(=O)[C@]3(C)[C@H]21`, the GI50 was 1.78 µM in assay [1]; 0.425 µM in [2]; 0.308 µM in assay [3]; 1.53 µM in [5]; 0.43 µM in [6]; 0.61 µM in assay [7]. In addition, the values for the GI50 in assay [8], in assay [10] and in assay [9] were 0.324 µM, 0.264 µM and 0.746 µM, respectively. Further, the TGI in assay [1] came out at 6.05 µM; in assay [2], 2.03 µM; in assay [3], 2.25 µM; in [5], 7.06 µM; in assay [6], 3.29 µM; in [7], 3.31 µM. The TGI is 2.43 µM in assay [8], 1.37 µM in assay [10] and 6.51 µM in assay [9].
On to `CC(=O)O[C@H]1CCN2C(=O)C=CC(OCc3ccccc3)C12` (stereo partly drawn), for which the TGI in assay [1], in assay [2], in [3], in [4], in [5] and in [6] was greater than 100 µM each time. In addition, the TGI in [8], in assay [10] and in assay [9] was greater than 100 µM in each case.
`COc1cc2oc(-c3ccccc3)cc(=O)c2c(O)c1C`: the TGI in assay [1], in assay [2], in [3], in assay [4], in assay [5] and in assay [6] was greater than 100 µM each time. Further, the TGI in assay [8], in assay [10] and in assay [9] was greater than 100 µM each time.
`O=C(O)c1ccc(C(O)(c2ccccc2)c2ccccc2)cc1`: the TGI in assay [1], in assay [2], in assay [3], in [4], in assay [6] and in assay [7] was greater than 100 µM in each case. Moreover, the TGI in assay [8] and in [9] was greater than 100 µM throughout.
In the case of `COc1ccc(C2CC(c3ccc(Nc4ccnc5cc(Cl)ccc45)cc3)=NN2C=O)cc1` (stereo not drawn), the GI50 in assay [1] was 13.4 µM; in [2], 3.56 µM; in assay [3], 2.71 µM; in assay [4], 2.55 µM; in [6], 32 µM; in assay [7], 9.43 µM. Moreover, the results for the GI50 in assay [8], in assay [10] and in assay [9] were 12.6 µM, 3.81 µM and 24.8 µM, respectively. For the same molecule, the TGI in assay [1] was greater than 100 µM; in assay [2], greater than 100 µM; in assay [3], 48.6 µM; in [4], 16.7 µM; in [6] it was greater than 100 µM; in [7] it was greater than 100 µM. Moreover, the TGI in [8], in assay [10] and in assay [9] was greater than 100 µM throughout.
For the molecule `CCCCNS(=O)(=O)c1n[nH]c(=O)[nH]c1=O`, the TGI in [1], in assay [2], in assay [3], in assay [4], in assay [6] and in assay [7] was greater than 100 µM each time. Also, the TGI in assay [8], in assay [10] and in [9] was greater than 100 µM each time.
`O=C(O)c1cc(=O)cc(C(=O)O)o1`: the GI50 in assay [1], in assay [2], in assay [3], in assay [4], in assay [5] and in assay [6] was greater than 100 µM in each case. Further, the GI50 in assay [7], in [10] and in [9] was greater than 100 µM in each case. For the same molecule, the TGI in [1], in assay [2], in [3], in assay [4], in [5] and in [6] was greater than 100 µM in each case. Further, the TGI in [7], in assay [10] and in assay [9] was greater than 100 µM in each case.
As for `Cc1cnc2oc3ccc(O)cc3c2c1-c1ccccc1`, the GI50 in assay [1] is greater than 100 µM; in assay [2], greater than 100 µM; in assay [3], greater than 100 µM; in assay [5] it was 3.34 µM; in [6], 36.3 µM; in assay [7], 6.51 µM. The GI50 is 10 µM in assay [8], greater than 100 µM in [10] and 23.8 µM in assay [9]. The TGI in [1] is greater than 100 µM; in assay [2], greater than 100 µM; in assay [3], greater than 100 µM; in assay [5], 38.5 µM; in assay [6], greater than 100 µM; in [7] it was greater than 100 µM. The figures for the TGI in assay [8], in assay [10] and in assay [9] were 47.3 µM, greater than 100 µM and 93.2 µM, respectively.
On to `CCn1c2ccccc2c(=O)c2c(OC)ccc(OC)c21`, for which the TGI was greater than 100 µM in [1]; greater than 100 µM in assay [2]; greater than 100 µM in assay [3]; greater than 100 µM in assay [4]; 98.7 µM in assay [5]; greater than 100 µM in [6]. Besides, the TGI in assay [8], in [10] and in [9] was greater than 100 µM in each case.

For the origin of these results see PubChem BioAssay (NCI).
